# Data published in PubChem BioAssay (NCI).
# Where “and” joins values, the source holds several entries; their conditions need not be identical. Equal values may be shown once.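 Five concentrations, 48 hours, 96-well plates. GI50 is the concentration that inhibits growth by half. Definition used: TGI = concentration required for complete inhibition of growth.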
# Tested on: MDA-MB-468 breast
# Assay: DTP human tumour cell line panel, 48 h
SMILES,GI50,TGI
COC(=O)c1cncc(/C=C/c2c(C)cc(O)cc2C)c1,4.32 µM,12.6 µM
C/C(=C\c1cnc(C)s1)[C@@H]1C[C@@H]2O[C@@H]2CCC[C@H](C)[C@H](O)[C@@H](C)C(=O)C(C)(C)[C@@H](O)CC(=O)O1,< 0.01 µM,1.81 µM
O=C(CC1(O)C(=O)N(Cc2ccccc2)c2ccccc21)c1ccc(C(=O)NCC2CCC3(CC2)OOC2(CCCCC2)OO3)cc1 (configuration not stated),1.49 µM,3.31 µM
O=C(CCCCCCN1CC(=O)N2[C@@H](c3ccc(Cl)c(Cl)c3)c3[nH]c4ccccc4c3C[C@H]2C1=O)NO,1.89 µM,7.42 µM
CN(CCNCc1ccccn1)CCNCc1ccccn1,2.71 µM,7.93 µM
Cc1cccc2c3c(sc12)C(c1ccc(Cl)cc1)C(C#N)=C(N)O3 (configuration not stated),0.277 µM,3.75 µM
COc1cc2c(cc1OCCCCN1CCN(C(=S)SCCC(C#N)(c3ccccc3)c3ccccc3)CC1)N=C[C@@H]1CCCN1C2=O,0.499 µM,31.4 µM
C(=N/N(Cc1ccccc1)Cc1ccccc1)/c1ccccc1,> 100 µM,> 100 µM
Oc1ccc(C(c2ccc(O)cc2)c2ccc(Br)cn2)cc1,0.234 µM,0.637 µM
c1ccc2cc(-c3n(Cc4ccc5ccccc5n4)c4ccccc4[n+]3Cc3ccc4ccccc4n3)ccc2c1,0.116 µM,0.529 µM
COc1ccc(-c2nc(/C=C3\SC(=NCc4ccccc4)NC3=O)c3ccccn23)cc1,1.9 µM,4.39 µM
CSc1nc2sc3c(c2c(=O)n1-c1ccc(C(C)C)cc1)CCC(=O)C3,2.16 µM,5.99 µM
O=C1OC(C(O)CO)C(O)=C1O (configuration not stated),1820 µM and 2020 µM,3760 µM and 4400 µM
O=C(N/N=C/c1ccco1)c1[nH]c2ccc(Br)cc2c1-c1ccccc1,0.22 µM,2.4 µM
COC1=C(OC)C(=O)C(SC/C=C(\C)CCCC(C)CCCC(C)CCCC(C)C)=CC1=O (configuration not stated),3.33 µM,> 100 µM
Oc1cccc2ccc(N/N=C/c3cc(CN4CCOCC4)c(O)c4ncccc34)nc12,0.0302 µM,0.289 µM
COc1cc2nc(-c3cc(F)ccc3O)nc(N[C@@H]3CNC[C@H]3C(C)(C)O)c2cc1OC,1.64 µM,3.12 µM
N#CCCN1C/C(=C/c2ccc(Cl)cc2)C(=O)/C(=C/c2ccc(Cl)cc2)C1,1 µM,2.89 µM
CCCCCO/N=C\c1c2c(O)c3c(O)c(C)c4c(c3c1O)C(=O)C(C)(O/C=C\C(OC)C(C)C(OC(C)=O)C(C)C(O)C(C)C(O)C(C)/C=C\C=C(\C)C(=O)N2)O4 (configuration not stated),2.17 µM,6.33 µM
COC(=O)[C@H]1CCCN1C(=O)[C@H]1CCCN1C(=O)[C@@H](Cc1c[nH]c2ccccc12)NC(=S)Nc1cc(C(F)(F)F)cc(C(F)(F)F)c1,2.26 µM,5.9 µM
Oc1c(I)cc(I)c2cccnc12,7.01 µM,30.3 µM
CCc1cccc(C)c1NC(=O)c1sc2nc3c(cc2c1N)C(=O)CCC3,0.377 µM,60.5 µM
O=C(/C=C/c1cccc(O)c1)c1cccc(-n2cc(-c3ccccc3)[nH]c2=O)c1,2.46 µM,7.7 µM

SMILES,GI50,TGI
CC(=O)NCc1cccc(C#Cc2cncnc2Nc2ccc(OCc3cccc(F)c3)c(Cl)c2)c1,1.29 µM,6.29 µM
CCCCCCNC(=O)Oc1ccc(/C(=C(\C)c2ccc(Cl)cc2)c2ccc(OCCN3CCCCC3)cc2)cc1,3.46 µM,8.7 µM
COc1ccc(N(CC(=O)NCCC[Te]c2ccccc2)C(=O)CNC(=O)OC(C)(C)C)cc1,3.2 µM,10.9 µM
CC1OC(OC2C(O)CC(OC3C(O)CC(OC4CCC5(C)C(CCC6C5CC(O)C5(C)C(C7=CC(=O)OC7)CCC65O)C4)OC3C)OC2C)CC(O)C1O (configuration not stated),0.159 µM,0.364 µM
Nc1nc(Nc2ccccc2SSc2ccccc2Nc2nc(N)nc(C(Cl)(Cl)Cl)n2)nc(C(Cl)(Cl)Cl)n1,4.7 µM,29.1 µM
O=C(Nc1cccc(-n2cc(-c3ccncc3)c(-c3cc(O)cc(Cl)c3)n2)c1)c1cc(C(F)(F)F)cc(C(F)(F)F)c1,3.1 µM,> 100 µM
Cn1cc(C2=C(c3cccc(OC[C@@H](O)CO)c3)C(=O)NC2=O)c2ccccc21,> 25 µM,> 25 µM
Cc1cc(N(CCCNc2ccnc3cc(Cl)ccc23)Cc2ccco2)nc(N2CCN(C)CC2)n1,1.81 µM,4.32 µM
Cc1ccc(-c2nc([P+](c3ccccc3)(c3ccccc3)c3ccccc3)c(S(=O)(=O)c3ccc(C)cc3)o2)cc1,1.03 µM,2.6 µM
C=CCN1CC(=O)N2[C@@H](Cc3ccc(O)cc3F)C(=O)N(Cc3cccc(N4CC(N5CCN(CC)CC5)C4)n3)C[C@@H]2N1C(=O)NCc1ccccc1,0.232 µM,> 100 µM
COc1ccc(C(=O)c2c(N)c(C#N)cn2-c2cccc(OC)c2)cc1,1.12 µM,4.23 µM
C[C@]12CC[C@@H]3c4cc(OC(F)F)c(OS(N)(=O)=O)cc4CC[C@H]3[C@@H]1CC[C@@H]2O,0.244 µM,1.42 µM
O=[N+]([O-])c1ccc(N2CCOCC2)c2c1no[n+]2[O-],0.769 µM,2.83 µM
COc1cc(/C=C/C(=O)c2cccc(-n3cc(-c4ccc(Cl)cc4)[nH]c3=O)c2)cc(OC)c1OC,12.8 µM,34.7 µM
N#CC1=C(/N=C/c2ccccc2)Oc2c(ccc3ccccc23)C1c1ccccc1 (configuration not stated),0.247 µM,0.741 µM
CC1=C(CC(=O)c2cccc([N+](=O)[O-])c2)C(=O)c2ccccc2C1=O,1.77 µM,5.9 µM
Cc1cc(C#Cc2ccc(C(C)(C)C)cc2)ccc1-n1c(/C=C/c2ccc(O)cc2O)nc2ccccc2c1=O,2.2 µM,6.5 µM
COc1ccc(/C=C(\C#N)n2nnc3c(F)cccc32)cc1,1.58 µM,6.67 µM
c1ccc2c(c1)Nc1ccncc1S2,18.9 µM,50.8 µM
CC(C)(O)CNc1nc(Nc2ccnc(C(F)(F)F)c2)nc(-c2cccc(C(F)(F)F)n2)n1,18 µM,38.5 µM
C#CCNC(=O)[C@H](CC)[C@H]1CC[C@H](C)[C@H]([C@@H](C)[C@H](O)[C@H](C)C(=O)[C@H](CC)C2O[C@]3(C=CC(=O)[C@]4(CC[C@@](C)([C@H]5CC[C@](O)(CC)[C@H](C)O5)O4)O3)[C@H](C)C[C@@H]2C)O1 (some centres not stated),2.51 µM,21.5 µM
NS(=O)(=O)c1ccc(-c2cc3ccncc3cc2OCc2ccccc2)cc1,13.4 µM,> 25 µM
CCN(CC)CCCCCCNc1cc(OC)cc2cccnc12,1.93 µM,3.8 µM
